US9126999B2, “Tetrahydropyrazolopyrimidine compounds” (EISAI R&D MANAGEMENT CO., LTD., priority 2012, dated 2015)

Target: Human TLR4 (Homo sapiens, UniProt O00206)
Test: Human PBMC cell-based assay, LPS stimulus, IL-6 ELISA
Parameters: endogenous in cells; host or cells: primary human PBMC from healthy donor blood
Conditions: Hu PBMC; ligand LPS; analyte IL-6
Protocol: Human peripheral blood mononuclear cells (PBMC) were isolated from freshly-drawn heparinized (10 USP units/ml, Hospira, Lakeforest, Ill.) healthy donor whole blood by density gradient (Histopaque® 1077, Sigma, Inc., St. Louis, Mo.). Briefly, 25 ml blood was diluted with 15 ml PBS (without Ca^2+, Mg^2+) in a 50 ml conical tube, and 12 ml Histopaque was underlaid using a spinal needle. Tubes were centrifuged for 45 minutes at 1200 rpm (350×g), and PBMC were collected from the buffy coat. Cells were then washed twice in PBS, and red blood cells were lysed by suspension in 5 ml ammonium chloride solution (1× Red Blood Cell Lysis Buffer, eBioscience) for 5 minutes at room temperature. […]
Antagonist compounds solubilized and serial diluted in 100% DMSO were added in triplicate to cells to yield a final concentration of 0.1% DMSO (v/v). […] Cell culture supernatants were collected, and levels of various human cytokines were assessed as indicated by standard ELISA procedure according to the manufacturer's recommended protocol (BD Biosciences, Inc., San Diego, Calif.).

Sequence of Human TLR4 (O00206 24-839): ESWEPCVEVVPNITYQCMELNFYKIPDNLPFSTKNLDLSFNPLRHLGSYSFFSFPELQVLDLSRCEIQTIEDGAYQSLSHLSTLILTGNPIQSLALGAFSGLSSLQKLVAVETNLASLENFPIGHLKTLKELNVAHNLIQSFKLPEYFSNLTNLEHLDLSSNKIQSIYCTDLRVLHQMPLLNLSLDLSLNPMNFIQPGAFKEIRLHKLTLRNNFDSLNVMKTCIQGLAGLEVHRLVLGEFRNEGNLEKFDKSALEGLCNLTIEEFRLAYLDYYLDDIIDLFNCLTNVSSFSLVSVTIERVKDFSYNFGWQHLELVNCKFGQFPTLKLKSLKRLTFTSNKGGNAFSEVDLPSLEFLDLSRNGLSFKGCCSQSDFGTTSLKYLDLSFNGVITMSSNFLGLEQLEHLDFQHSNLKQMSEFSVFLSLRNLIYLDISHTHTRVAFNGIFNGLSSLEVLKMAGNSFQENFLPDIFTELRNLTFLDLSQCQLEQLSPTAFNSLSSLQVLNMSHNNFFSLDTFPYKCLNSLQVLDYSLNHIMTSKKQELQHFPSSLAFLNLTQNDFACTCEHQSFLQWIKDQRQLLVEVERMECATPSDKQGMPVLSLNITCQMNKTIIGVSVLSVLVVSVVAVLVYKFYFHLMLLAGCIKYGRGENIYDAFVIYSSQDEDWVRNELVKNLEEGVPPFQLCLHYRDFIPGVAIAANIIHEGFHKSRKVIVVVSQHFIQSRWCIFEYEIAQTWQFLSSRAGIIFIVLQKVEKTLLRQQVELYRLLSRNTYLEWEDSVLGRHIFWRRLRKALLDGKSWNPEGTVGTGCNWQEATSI
Sequence of Human TLR4 (Q9Y6Y9 19-160 partner): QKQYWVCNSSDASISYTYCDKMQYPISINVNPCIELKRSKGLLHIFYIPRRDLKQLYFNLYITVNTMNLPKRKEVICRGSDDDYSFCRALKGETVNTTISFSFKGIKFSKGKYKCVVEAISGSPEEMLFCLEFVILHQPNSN

COc1ccc([C@@H]2C[C@H](C(F)(F)F)n3nc(-c4ccc(C(=O)N5CCNCC5)cc4)cc3N2)cc1OC [ER-892887, (4-((5S,7R)-5-(3,4-dimethoxyphenyl)-7-(trifluoromethyl)-4,5,6,7-tetrahydropyrazolo[1,5-a]pyrimidin-2-yl)phenyl)(piperazin-1-yl)methanone]
IC50: > 10 µM
